From US10633338B2, “Binding Function 3 (BF3) site compounds as therapeutics and methods for their use” (THE UNIVERSITY OF BRITISH COLUMBIA, priority 2014, dated 2020)
Read-outs that look alike come from different tables or passages of the source.

Columns and labels:
PSA = test: Prostate Surface Antigen (PSA) assay, PSA excreted into the media; assay type: cell-based, human; conditions: same plates as eGFP assay
Protocol: The evaluation of PSA excreted into the media was performed in parallel to the eGFP assay using the same plates (see above description). After the cells were incubated for 3 days 150 μl of the media was taken from each well, and added to 150 μl of PBS.

androgen receptor (AR) = biological target: T1, androgen receptor (AR) (Homo sapiens, UniProt P10275, T878A); test: eGFP cellular AR transcription assay; assay type: cell-based
T1 construct: stably transfected eGFP-expressing LNCaP human prostate cancer cells (LN-ARR2PB-eGFP) containing an androgen responsive probasin-derived promoter; endogenous in cells; host or cells: LNCaP (LN-ARR2PB-eGFP)
T1 sequence (P10275 1-920 T878A): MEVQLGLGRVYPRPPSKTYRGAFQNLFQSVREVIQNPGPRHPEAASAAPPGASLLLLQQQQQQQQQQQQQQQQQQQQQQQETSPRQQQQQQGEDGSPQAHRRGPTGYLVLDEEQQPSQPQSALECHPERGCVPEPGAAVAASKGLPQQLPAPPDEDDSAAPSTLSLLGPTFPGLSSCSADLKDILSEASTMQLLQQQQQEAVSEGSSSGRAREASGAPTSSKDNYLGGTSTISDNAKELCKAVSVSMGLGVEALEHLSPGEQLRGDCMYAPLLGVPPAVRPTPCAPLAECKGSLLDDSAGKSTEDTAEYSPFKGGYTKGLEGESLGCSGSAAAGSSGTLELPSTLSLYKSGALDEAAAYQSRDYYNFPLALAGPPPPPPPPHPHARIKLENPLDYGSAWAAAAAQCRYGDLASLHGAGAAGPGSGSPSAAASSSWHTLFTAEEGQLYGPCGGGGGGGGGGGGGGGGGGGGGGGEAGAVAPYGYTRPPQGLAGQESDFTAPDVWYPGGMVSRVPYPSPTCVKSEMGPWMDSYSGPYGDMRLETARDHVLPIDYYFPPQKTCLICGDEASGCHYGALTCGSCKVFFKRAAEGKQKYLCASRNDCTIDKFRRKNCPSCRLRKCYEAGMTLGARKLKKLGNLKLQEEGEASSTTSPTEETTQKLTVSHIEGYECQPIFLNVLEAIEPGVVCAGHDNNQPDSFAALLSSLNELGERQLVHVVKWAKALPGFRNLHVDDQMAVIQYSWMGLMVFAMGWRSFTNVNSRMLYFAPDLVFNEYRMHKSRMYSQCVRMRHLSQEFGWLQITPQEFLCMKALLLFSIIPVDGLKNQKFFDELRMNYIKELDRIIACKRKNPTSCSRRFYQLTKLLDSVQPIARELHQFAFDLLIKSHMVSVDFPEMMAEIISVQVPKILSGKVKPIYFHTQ
Procedure, shortened: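 AR transcriptional activity is read as eGFP expression from a probasin-derived androgen-responsive promoter. Compound titrated 0-100 μM in the presence of 0.1 nM R1881; 35,000 cells/well.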

[1] = PSA excreted into media, 3 days incubation
[2] = LN-ARR2PBeGFP LNCaP cells, 0.1 nM R1881, 3 days incubation
[3] = Homo sapiens, 72 h, media after 3 days, read-out: IC50 (PSA)
[4] = LN-ARR2PB-eGFP LNCaP cells, 0.1 nM R1881, 3 days, 0-100 μM compound, read-out: IC50 (eGFP)
[5] = Homo sapiens, 72 h, PSA excreted into media, 3 days incubation, read-out: PSA IC50
[6] = LN-ARR2PBeGFP LNCaP cells, 0.1 nM R1881, 3 days incubation, read-out: eGFP IC50

| Compound | IC50 (PSA; [5]) | IC50 (androgen receptor (AR); [6]) | also measured |
| --- | --- | --- | --- |
| Cc1cc(F)cc2c(-c3ccc4c(Cl)cccc4n3)c[nH]c12 [Compound 13709] | – | – | PSA IC50 (PSA; [1]): Inactive; eGFP IC50 (androgen receptor (AR); [2]): Inactive |
| Brc1ccc2c(-c3ccc4ccccc4n3)c[nH]c2c1 [13 568] | – | – | IC50 (PSA; [3]): 1.56 µM; IC50 (androgen receptor (AR); [4]): 1.3 µM |
| Fc1c(Cl)ccc2c(-c3ccc4ccccc4n3)c[nH]c12 [Compound 13613] | 1.74 µM | 11.5 µM | – |
| c1ccc2ncc(-c3n[nH]c4ccccc34)cc2c1 [13 684] | – | – | IC50 (PSA; [3]): 6.61 µM; IC50 (androgen receptor (AR); [4]): 1.4 µM |
| Cc1cc(C)c2[nH]cc(-c3ccc4cc(F)ccc4n3)c2c1 [Compound 13599] | – | – | PSA IC50 (PSA; [1]): Inactive; eGFP IC50 (androgen receptor (AR); [2]): Inactive |
| FC(F)(F)c1ccc(-c2c[nH]c3ccccc23)nc1 [Compound 13741] | 0.29 µM | 0.29 µM | – |
| Cc1ccc(C)c2c(-c3ccc4ccccc4n3)c[nH]c12 [Compound 13600] | 0.929 µM | 1.25 µM | – |
| Fc1cccc2nc(-c3c[nH]c4c(Br)cccc34)ccc12 [Compound 13714] | – | – | PSA IC50 (PSA; [1]): Inactive; eGFP IC50 (androgen receptor (AR); [2]): Inactive |
| O=Nc1c(-c2c[nH]c3ccccc23)[nH]c2ccccc12 [Compound 13167] | 1.25 µM | 1.9 µM | – |
| Brc1cccc2c(-c3ccc4ccccc4n3)c[nH]c12 [Compound 13621] | 0.008 µM | 0.02 µM | – |
| Fc1ccc(F)c2c(-c3ccc4ccccc4n3)c[nH]c12 [Compound 13656] | 0.46 µM | 0.99 µM | – |
| c1ccc2c(c1)NC(c1c[nH]c3ccccc13)C21CCCCC1 (centres unmarked) [Compound 13534] | 1.25 µM | 0.8 µM | – |
| Cn1cc(-c2cc3ccccc3n2C)c2ccccc21 [Compound 13166] | 2.12 µM | 1.6 µM | – |
| c1ccc2ncc(-c3c[nH]c4ccncc34)cc2c1 [Compound 13637] | – | – | PSA IC50 (PSA; [1]): Inactive; eGFP IC50 (androgen receptor (AR); [2]): Inactive |
| COc1ccc2[nH]cc(C3Nc4ccccc4C3(C)C)c2c1 (centres unmarked) [13 536] | – | – | IC50 (PSA; [3]): 2.52 µM; IC50 (androgen receptor (AR); [4]): 2.2 µM |
| Cc1cccc2nc(-c3c[nH]c4c(C)c(F)ccc34)ccc12 [Compound 13616] | – | – | PSA IC50 (PSA; [1]): Inactive; eGFP IC50 (androgen receptor (AR); [2]): Inactive |
| c1ccc2nc(-c3n[nH]c4ccccc34)ccc2c1 [Compound 13579] | 0.043 µM | – | IC50 (androgen receptor (AR); eGFP IC50, LN-ARR2PBeGFP LNCaP cells, 0.1 nM R1881, 3 days incubation): 0.101 µM |
| Cc1cc(F)cc2c(-c3cnc4ccc(F)cc4n3)c[nH]c12 [Compound 13717] | 0.33 µM | 0.49 µM | – |
| CNC(=O)c1cccc2nc(-c3c[nH]c4c(C)c(F)c(F)cc34)ccc12 [Compound 13771] | 0.09 µM | 0.2 µM | – |
| CC1(C)c2ccccc2NC1c1c[nH]c2ncccc12 (centres unmarked) [Compound 13556] | – | 2.11 µM | IC50 (PSA; PSA excreted into media, 3 days incubation, read-out: PSA IC50): 2.18 µM |
| FC(F)(F)c1ccccc1/N=N/c1c[nH]c2ccccc12 [Compound 13259] | 0.25 µM | 0.3 µM | – |
| Cc1cccc2cnn(-c3ccc4ccccc4n3)c12 [13 575] | – | – | IC50 (PSA; [3]): 1.36 µM; IC50 (androgen receptor (AR); [4]): 3.5 µM |
| c1ccc2c(-c3nn[nH]n3)c[nH]c2c1 [Compound 13701] | – | – | PSA IC50 (PSA; [1]): Inactive; eGFP IC50 (androgen receptor (AR); [2]): Inactive |
| CC1(C)C(c2c[nH]c3c(O)cccc23)=Nc2ccccc21 [13 541] | – | – | IC50 (PSA; [3]): 0.94 µM; IC50 (androgen receptor (AR); [4]): 0.5 µM |
| Cc1cccc2c(-c3ccc4c(O)cccc4n3)c[nH]c12 [Compound 13620] | – | – | PSA IC50 (PSA; [1]): Inactive; eGFP IC50 (androgen receptor (AR); [2]): Inactive |
| Cc1ccc2[nH]cc(-c3ccc4ccccc4n3)c2c1 [13 577] | – | – | IC50 (PSA; [3]): 1.73 µM; IC50 (androgen receptor (AR); [4]): 3.2 µM |
| Clc1ccccc1/N=N/c1c[nH]c2ccccc12 [Compound 13255] | 0.46 µM | 0.5 µM | – |
| Fc1ccc(CSc2c[nH]c3ccccc23)cc1 [Compound 13410] | 2.03 µM | 1.2 µM | – |
